Assay results: ChEMBL document CHEMBL3758098, “3-(Dipropylamino)-5-hydroxybenzofuro[2,3-f]quinazolin-1(2H)-one (DPA-HBFQ-1) plays an inhibitory role on breast cancer cell growth and progression” (Eur J Med Chem, 2016)
Activity calls are given as the source filed them. The rule behind the calls is not given here.

How the values were obtained:
MCF7 = experiment: Cytotoxicity against human MCF7 cells assessed as growth inhibition at 1 uM after 5 days by MTT assay relative to vehicle-treated control; format: functional; conditions: MCF7, 120 h, read-out: GI
MDA-MB-231 = experiment: Cytotoxicity against human MDA-MB-231 cells assessed as growth inhibition at 1 uM after 5 days by MTT assay relative to vehicle-treated control; format: functional
[1] = Cytotoxicity against human MCF10A cells assessed as growth inhibition at 1 uM after 5 days by MTT assay relative to vehicle-treated control; format: cell-based; conditions: mcf-10a, 120 h

CCN(CC)c1nc2ccc3c4ccccc4oc3c2c(=O)[nH]1
inhibition of growth at 1 µM (MCF7): 10%
growth inhibition (GI) (MDA-MB-231): Active
Activity [1]: Non-toxic

CCCN(CCC)c1nc2ccc3c4ccccc4oc3c2c(=O)[nH]1
inhibition of growth at 1 µM (MCF7): 25%
growth inhibition (GI) (MDA-MB-231): Active
Activity [1]: Non-toxic

CCCN(CCC)c1nc2c(OC)cc3c4ccccc4oc3c2c(=O)[nH]1
inhibition of growth at 1 µM (MCF7): 37%
growth inhibition (GI) (MDA-MB-231): Active
Activity [1]: Non-toxic

CCCCN(CCCC)c1nc2ccc3c4ccccc4oc3c2c(=O)[nH]1
inhibition of growth at 1 µM (MCF7): 15%
growth inhibition (GI) (MDA-MB-231): Active
Activity [1]: Non-toxic
